# Reference: ChEMBL document CHEMBL5725495, “Heterocyclylamines as PI3K inhibitors” (2017)
# Test: A2 PI3Kdelta Scintillation Proximity Assay: Lipid kinase substrate, phosphoinositol-4,5-bisphosphate (PIP2), are purchased from Echelon Biosciences (Salt Lake City, Utah). PI3K isoforms α, β, δ and γ are purchased from Millipore (Bedford, Mass.). ATP, MgCl2, DTT, EDTA, MOPS and CHAPS are purchased from Sigma-Aldrich (St. Louis, Mo.). The kinase reaction are conducted in clear-bottom 96-well plate from Thermo Fisher Scientific in a final volume of 24 μL. Inhibitors are first diluted serially in DMSO and added to the plate wells before the addition of other reaction components. The final concentration of DMSO in the assay is 0.5%. The PI3K assays are carried out at room temperature in 20 mM MOPS, pH 6.7, 10 mM MgCl2, 5 mM DTT and CHAPS 0.03%. The reaction mixture is prepared containing 50 μM PIP2, kinase and varying concentration of inhibitors. Reactions are initiated by the addition of ATP containing 2.2 μCi [γ-33P]ATP to a final concentration of 1000 μM. The final concentration of PI3K isoforms α, β, δ and γ in the assay were 1.3, 9.4, 2.9 and 10.8 nM, respectively. Reactions are incubated for 180 minutes and terminated by the addition of 100 μL of 1 M potassium phosphate pH 8.0, 30 mM EDTA quench buffer. A 100 μL aliquot of the reaction solution are then transferred to 96-well Millipore MultiScreen IP 0.45 μm PVDF filter plate (The filter plate is prewetted with 200 μL 100% ethanol, distilled water, and 1 M potassium phosphate pH 8.0, respectively). The filter plate is aspirated on a Millipore Manifold under vacuum and washed with 18×200 μL wash buffer containing 1 M potassium phosphate pH 8.0 and 1 mM ATP. After drying by aspiration and blotting, the plate is air dried in an incubator at 37° C. overnight. Packard TopCount adapter (Millipore) is then attached to the plate followed with addition of 120 μL Microscint 20 scintillation cocktail (Perkin Elmer) in each well. After the plate sealing, the radioactivity of the product is determined by scintillation counting on Topcount (Perkin-Elmer). IC50 determination is performed by fitting the curve of percent control activity versus the log of the inhibitor concentration using the GraphPad Prism 3.0 software.
# Set-up: species or system Homo sapiens
row,SMILES,IC50
1,COc1c(C(C)n2nc(C)c3c(N)ncnc32)cc(Cl)c(C)c1-c1ccc(C(=O)N(C)C)nc1 (stereo not drawn),< 10 nM
2,COc1c(C(C)n2cc(C)c3c(N)ncnc32)cc(Cl)c(C#N)c1C1CN(C(C)C)C1 (stereo not drawn),< 10 nM
3,CCOc1c(C(C)n2nc(C)c3c(N)ncnc32)cc(Cl)c(C)c1-c1ccc(C(=O)N(C)C)nc1 (stereo not drawn),< 10 nM
4,CCOc1c([C@H](C)n2nc(C)c3c(N)ncnc32)cc(Cl)c(C#N)c1C1CN(CCOC)C1,< 10 nM
5,COc1c([C@H](C)n2nc(C)c3c(N)ncnc32)cc(Cl)c(C#N)c1C1CN(CC2CCOC2)C1 (stereo partly drawn),< 10 nM
6,COc1c([C@H](C)n2nc(C)c3c(N)ncnc32)cc(Cl)c(C#N)c1C1CN(C(C)CO)C1 (stereo partly drawn),< 10 nM
7,COc1c([C@@H](C)n2nc(C)c3c(N)ncnc32)cc(Cl)c(C#N)c1C1CN(C(C)CO)C1 (stereo partly drawn),< 10 nM
8,COc1c(C(C)n2nc(C)c3c(N)ncnc32)cc(Cl)c(C#N)c1C1CN(CCO)C1 (stereo not drawn),< 10 nM
9,COc1c([C@@H](C)n2nc(C)c3c(N)ncnc32)cc(Cl)c(C#N)c1C1CN(CC2CCOC2)C1 (stereo partly drawn),< 10 nM
10,COc1c([C@@H](C)n2nc(C(F)F)c3c(N)ncnc32)cc(Cl)c(F)c1C1CN(C)C1,< 10 nM
11,CCOc1c([C@@H](C)n2nc(C)c3c(N)ncnc32)cc(Cl)c(C#N)c1C1CN(C(C)CO)C1 (stereo partly drawn),< 10 nM

# The next lines start with the values.
row,IC50,SMILES
1,< 10 nM,COc1c(C(C)n2nc(C)c3c(N)ncnc32)cc(Cl)c(C)c1C1CN(C[C@H](C)O)C1 (stereo partly drawn)
2,< 10 nM,CCOc1c([C@H](C)n2nc(C)c3c(N)ncnc32)cc(Cl)c(C#N)c1C1CN(C(C)CO)C1 (stereo partly drawn)
3,< 10 nM,CCOc1c(C(C)n2nc(C)c3c(N)ncnc32)cc(Cl)c(F)c1C1CN(C[C@H](C)O)C1 (stereo partly drawn)
4,< 10 nM,"COc1c([C@@H](C)n2nc(C(F)F)c3c(N)ncnc32)cc(Cl)c(F)c1C1CN(CCO)C1 (single isomer, unassigned)"
5,< 10 nM,COc1c([C@@H](C)n2nc(C)c3c(N)ncnc32)cc(Cl)c(C#N)c1C1CN(C2CCOC2)C1 (stereo partly drawn)
6,< 10 nM,COc1c(C(C)n2nc(C(F)F)c3c(N)ncnc32)cc(C#N)c(C)c1C1CN(C[C@H](C)O)C1 (stereo partly drawn)
7,< 10 nM,"CCOc1c([C@@H](C)n2nc(C)c3c(N)ncnc32)cc(Cl)c(F)c1C1CN(C(C)C)C1 (single isomer, unassigned)"
